Key:
Beta-lactamase [1] = biological target: T1, Beta-lactamase (Staphylococcus aureus, UniProt P00807); assay: Inhibitory activity against serine beta-lactamase, PC1 (class A) derived from Staphylococcus aureus
Beta-lactamase TEM = Beta-lactamase TEM (Escherichia coli, UniProt P62593); assay: Inhibitory activity against serine Beta-lactamase TEM derived from […]; format: single protein
Beta-lactamase [2] = biological target: T1, Beta-lactamase; assay: Inhibitory activity against serine Beta-lactamase derived from Staphylococcus aureus
Klebsiella aerogenes = assay: In vitro synergistic activity against Enterobacter aerogenes GC 6268 clinical isolate; format: functional; note: test concentration or dose not given here
Escherichia coli [3] = assay: In vitro synergistic activity against Escherichia coli 4100 (no beta-lactamase); format: functional
Escherichia coli [4] = assay: In vitro synergistic activity against Escherichia coli C600N + (PSE-1); format: functional
Staphylococcus aureus = assay: In vitro synergistic activity against Staphylococcus aureus (PC1); format: functional; note: test concentration or dose not given here
Escherichia coli [5] = assay: In vitro synergistic activity against Escherichia coli 300 + (ampR ampC); format: functional; note: test concentration or dose not given here
Escherichia coli [6] = assay: In vitro synergistic activity against Escherichia coli C600N + (Imi-1); format: functional
Escherichia coli [7] = assay: In vitro synergistic activity against Escherichia coli C600N + (SHV-1); format: functional
Escherichia coli [8] = assay: In vitro synergistic activity against Escherichia coli C600N + (P99); format: functional
Klebsiella pneumoniae [9] = assay: In vitro synergistic activity against Klebsiella pneumoniae (ACT-1 + 3 blas, IPM=S); format: functional; note: test concentration or dose not given here
Pseudomonas aeruginosa = assay: In vitro synergistic activity against Pseudomonas aeruginosa Ps505A1 (AmpC derepressed); format: functional; note: test concentration or dose not given here
Enterobacter cloacae [10] = assay: In vitro synergistic activity against Enterobacter cloacae (Imi-1+AmpC); format: functional
Escherichia coli [11] = assay: In vitro synergistic activity against Escherichia coli C600N + (TEM-10); format: functional
Escherichia coli [12] = assay: In vitro synergistic activity against Escherichia coli C600N + (SHV-4); format: functional
Escherichia coli [13] = assay: In vitro synergistic activity against Escherichia coli C600N + (IRT-2); format: functional; note: test concentration or dose not given here
Escherichia coli [14] = assay: In vitro synergistic activity against Escherichia coli 4100 + (CCRA); format: functional
Escherichia coli [15] = assay: In vitro synergistic activity against Escherichia coli 300 + (TEM-1); format: functional
Escherichia coli [16] = assay: In vitro synergistic activity against Escherichia coli ATCC 35218 (TEM-1); format: functional
Aeromonas sobria = assay: In vitro synergistic activity against Aeromonas sobria (Asb A, OXA-12, Asb M); format: functional; note: test concentration or dose not given here
Escherichia coli [17] = assay: In vitro synergistic activity against Escherichia coli ATCC 25922 (no beta-lactamase); format: functional; note: test concentration or dose not given here
Escherichia coli [18] = assay: In vitro synergistic activity against Escherichia coli 300 (no beta-lactamase, imp mutant); format: functional
Serratia marcescens = assay: In vitro synergistic activity against Serratia marcescens GC 4132 (Amp C); format: functional; note: test concentration or dose not given here
Escherichia coli [19] = assay: In vitro synergistic activity against Escherichia coli C600N + (MIR-1); format: functional
Escherichia coli [20] = assay: In vitro synergistic activity against Escherichia coli C600N + (OXA-10) {PSE-2}; format: functional
Escherichia coli [21] = assay: In vitro synergistic activity against Escherichia coli C600N + (L1); format: functional
Escherichia coli [22] = assay: In vitro synergistic activity against Escherichia coli GC 6266 clinical isolate; format: functional
Escherichia coli [23] = assay: In vitro synergistic activity against Escherichia coli C600N (no beta-lactamase); format: functional
[24] = tested on: Stenotrophomonas maltophilia; assay: In vitro synergistic activity against Stenotrophomonas maltophilia 1712(L1); format: functional; note: test concentration or dose not given here
Escherichia coli [25] = assay: In vitro synergistic activity against Escherichia coli GC6267 clinical isolate; format: functional
Enterobacter cloacae [26] = assay: In vitro synergistic activity against Enterobacter cloacae SC12629 (AmpC inducible); format: functional; note: test concentration or dose not given here
Klebsiella pneumoniae [27] = assay: In vitro synergistic activity against Klebsiella pneumoniae KC2 (TEM-10); format: functional; note: test concentration or dose not given here
Klebsiella pneumoniae [28] = assay: In vitro synergistic activity against Klebsiella pneumoniae GC 6269 clinical isolate; format: functional; note: test concentration or dose not given here
Escherichia coli [29] = assay: In vitro synergistic activity against Escherichia coli C600N + (Sme-1); format: functional
Escherichia coli [30] = assay: In vitro synergistic activity against Escherichia coli GC6265 (TEM-1); format: functional
Escherichia coli [31] = assay: In vitro synergistic activity against Escherichia coli C600N + (TEM-1); format: functional
Escherichia coli [32] = assay: In vitro synergistic activity against Escherichia coli C600N + (ampR ampC); format: functional; note: test concentration or dose not given here

T1 sequence (P00807 whole entry): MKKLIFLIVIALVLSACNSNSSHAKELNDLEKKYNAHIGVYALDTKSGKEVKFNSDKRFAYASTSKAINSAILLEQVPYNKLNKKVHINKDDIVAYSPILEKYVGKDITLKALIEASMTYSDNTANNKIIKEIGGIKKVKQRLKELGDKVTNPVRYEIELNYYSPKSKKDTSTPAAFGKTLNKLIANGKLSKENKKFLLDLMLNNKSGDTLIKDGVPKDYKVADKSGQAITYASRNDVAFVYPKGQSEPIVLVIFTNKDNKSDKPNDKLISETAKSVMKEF
Sequence of Beta-lactamase TEM (P62593 whole entry): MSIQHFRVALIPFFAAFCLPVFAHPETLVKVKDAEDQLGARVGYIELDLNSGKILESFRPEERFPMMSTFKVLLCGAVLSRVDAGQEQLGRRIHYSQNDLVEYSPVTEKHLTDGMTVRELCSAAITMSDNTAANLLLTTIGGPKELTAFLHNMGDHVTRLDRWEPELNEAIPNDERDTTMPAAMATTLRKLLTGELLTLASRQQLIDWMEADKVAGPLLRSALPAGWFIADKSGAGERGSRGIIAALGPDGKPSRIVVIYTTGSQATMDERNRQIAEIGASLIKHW

COC(=O)/C=C1/C(=O)N2C1S(=O)(=O)[C@@](C)(COC(=O)CSc1nnnn1C)[C@@H]2C(=O)O (some centres undefined)
IC50 (Beta-lactamase [1]): 940 µM | IC50 (Beta-lactamase TEM): 2.37 µM | IC50 (Beta-lactamase [2]): 13.2 µM

C[C@]1(CCl)[C@H](C(=O)O)N2C(=O)/C(=C/C(=O)O)C2S1(=O)=O (some centres undefined)
IC50 (Beta-lactamase [1]): 2100 µM | IC50 (Beta-lactamase TEM): 120 µM | IC50 (Beta-lactamase [2]): 527 µM

C[C@]1(/C=C/C#N)[C@H](C(=O)O)N2C(=O)/C(=C/C(=O)O)C2S1(=O)=O (some centres undefined)
IC50 (Beta-lactamase [1]): 504 µM | IC50 (Beta-lactamase TEM): 21.7 µM | IC50 (Beta-lactamase [2]): 6.76 µM

CC1(C)[C@H](C(=O)O)N2C(=O)/C(=C/C(=O)O)C2S1(=O)=O (some centres undefined)
IC50 (Beta-lactamase [1]): 108 µM | IC50 (Beta-lactamase TEM): 1.8 µM | IC50 (Beta-lactamase [2]): 4.5 µM

C[C@]1(COC=O)[C@H](C(=O)O)N2C(=O)/C(=C/C(=O)O)C2S1(=O)=O (some centres undefined)
IC50 (Beta-lactamase [1]): 173 µM | IC50 (Beta-lactamase [2]): 0.592 µM

CC(=O)OC[C@@]1(C)[C@H](C(=O)O)N2C(=O)/C(=C/C(=O)O)C2S1(=O)=O (some centres undefined)
IC50 (Beta-lactamase [1]): 76.5 µM | IC50 (Beta-lactamase TEM): 0.18 µM | IC50 (Beta-lactamase [2]): 0.708 µM

COC(=O)/C=C1/C(=O)N2[C@@H](C(=O)O)[C@](C)(COC(C)=O)S(=O)(=O)[C@H]12
IC50 (Beta-lactamase TEM): 2.72 µM | IC50 (Beta-lactamase [2]): 9.51 µM

C[C@]1(COC(=O)CCl)[C@H](C(=O)O)N2C(=O)/C(=C/C(=O)O)[C@H]2S1(=O)=O
IC50 (Beta-lactamase [1]): 7.2 µM | IC50 (Beta-lactamase TEM): 0.196 µM

CC(C)(O/N=C(\C(=O)N[C@@H]1C(=O)N2C(C(=O)[O-])=C(C[n+]3ccccc3)CS[C@H]12)c1csc(N)n1)C(=O)O [CEFTAZIDIME]
MIC (Klebsiella aerogenes): > 64 µg/mL | MIC (Escherichia coli [3]): < 0.06 µg/mL | MIC (Escherichia coli [4]): 0.25 µg/mL | MIC (Staphylococcus aureus): 4 µg/mL | MIC (Escherichia coli [5]): 4 µg/mL | MIC (Escherichia coli [6]): 1 µg/mL | MIC (Escherichia coli [7]): 0.5 µg/mL | MIC (Escherichia coli [8]): 64 µg/mL | MIC (Klebsiella pneumoniae [9]): > 64 µg/mL | MIC (Pseudomonas aeruginosa): 32 µg/mL | MIC (Enterobacter cloacae [10]): 0.5 µg/mL | MIC (Escherichia coli [11]): 64 µg/mL | MIC (Escherichia coli [12]): > 64 µg/mL | MIC (Escherichia coli [13]): 0.25 µg/mL | MIC (Escherichia coli [14]): > 64 µg/mL | MIC (Escherichia coli [15]): < 0.06 µg/mL | MIC (Escherichia coli [16]): < 0.06 µg/mL | MIC (Aeromonas sobria): < 0.06 µg/mL | MIC (Escherichia coli [17]): < 0.06 µg/mL | MIC (Escherichia coli [18]): < 0.06 µg/mL | MIC (Serratia marcescens): 0.25 µg/mL | MIC (Escherichia coli [19]): 64 µg/mL | MIC (Escherichia coli [20]): 0.12 µg/mL | MIC (Escherichia coli [21]): 32 µg/mL | MIC (Escherichia coli [22]): 0.25 µg/mL | MIC (Escherichia coli [23]): 0.12 µg/mL | MIC [24]: > 64 µg/mL | MIC (Escherichia coli [25]): 0.25 µg/mL | MIC (Enterobacter cloacae [26]): > 64 µg/mL | MIC (Klebsiella pneumoniae [27]): 64 µg/mL | MIC (Klebsiella pneumoniae [28]): 0.5 µg/mL | MIC (Escherichia coli [29]): 0.5 µg/mL | MIC (Escherichia coli [30]): < 0.06 µg/mL | MIC (Escherichia coli [31]): 0.12 µg/mL | MIC (Escherichia coli [32]): 64 µg/mL

C[C@@H](O)[C@H]1C(=O)N2C(C(=O)O)=C(SCCNC=N)C[C@H]12 [IMIPENEM ANHYDROUS]
MIC (Klebsiella aerogenes): 1 µg/mL | MIC (Escherichia coli [3]): 0.12 µg/mL | MIC (Escherichia coli [4]): 0.12 µg/mL | MIC (Staphylococcus aureus): < 0.06 µg/mL | MIC (Escherichia coli [5]): < 0.06 µg/mL | MIC (Escherichia coli [6]): 4 µg/mL | MIC (Escherichia coli [7]): 0.12 µg/mL | MIC (Escherichia coli [8]): 0.25 µg/mL | MIC (Klebsiella pneumoniae [9]): 1 µg/mL | MIC (Pseudomonas aeruginosa): 0.5 µg/mL | MIC (Enterobacter cloacae [10]): > 64 µg/mL | MIC (Escherichia coli [11]): 0.12 µg/mL | MIC (Escherichia coli [12]): 0.12 µg/mL | MIC (Escherichia coli [13]): 0.25 µg/mL | MIC (Escherichia coli [14]): 16 µg/mL | MIC (Escherichia coli [15]): < 0.06 µg/mL | MIC (Escherichia coli [16]): < 0.06 µg/mL | MIC (Aeromonas sobria): > 64 µg/mL | MIC (Escherichia coli [17]): < 0.06 µg/mL | MIC (Serratia marcescens): 1 µg/mL | MIC (Escherichia coli [19]): 0.5 µg/mL | MIC (Escherichia coli [20]): 0.12 µg/mL | MIC (Escherichia coli [21]): 2 µg/mL | MIC (Escherichia coli [22]): 0.25 µg/mL | MIC [24]: > 64 µg/mL | MIC (Escherichia coli [25]): 0.12 µg/mL | MIC (Enterobacter cloacae [26]): 1 µg/mL | MIC (Klebsiella pneumoniae [27]): < 0.06 µg/mL | MIC (Klebsiella pneumoniae [28]): 0.12 µg/mL | MIC (Escherichia coli [29]): 64 µg/mL | MIC (Escherichia coli [30]): < 0.06 µg/mL | MIC (Escherichia coli [31]): 0.12 µg/mL | MIC (Escherichia coli [32]): 0.5 µg/mL

CCN1CCN(C(=O)N[C@@H](C(=O)N[C@@H]2C(=O)N3[C@@H]2SC(C)(C)[C@@H]3C(=O)O)c2ccccc2)C(=O)C1=O [PIPERACILLIN]
MIC (Klebsiella aerogenes): > 64 µg/mL | MIC (Escherichia coli [3]): < 0.06 µg/mL | MIC (Escherichia coli [4]): 32 µg/mL | MIC (Staphylococcus aureus): > 64 µg/mL | MIC (Escherichia coli [5]): 16 µg/mL | MIC (Escherichia coli [6]): > 64 µg/mL | MIC (Escherichia coli [7]): 4 µg/mL | MIC (Escherichia coli [8]): > 64 µg/mL | MIC (Klebsiella pneumoniae [9]): > 64 µg/mL | MIC (Pseudomonas aeruginosa): > 64 µg/mL | MIC (Enterobacter cloacae [10]): > 64 µg/mL | MIC (Escherichia coli [13]): > 64 µg/mL | MIC (Escherichia coli [14]): > 64 µg/mL | MIC (Escherichia coli [15]): > 64 µg/mL | MIC (Escherichia coli [16]): > 64 µg/mL | MIC (Aeromonas sobria): 64 µg/mL | MIC (Escherichia coli [17]): 2 µg/mL | MIC (Serratia marcescens): 64 µg/mL | MIC (Escherichia coli [19]): 64 µg/mL | MIC (Escherichia coli [21]): > 64 µg/mL | MIC (Escherichia coli [22]): > 64 µg/mL | MIC (Escherichia coli [23]): 2 µg/mL | MIC [24]: > 64 µg/mL | MIC (Escherichia coli [25]): > 64 µg/mL | MIC (Enterobacter cloacae [26]): > 64 µg/mL | MIC (Klebsiella pneumoniae [27]): > 64 µg/mL | MIC (Klebsiella pneumoniae [28]): > 64 µg/mL | MIC (Escherichia coli [29]): > 64 µg/mL | MIC (Escherichia coli [30]): > 64 µg/mL | MIC (Escherichia coli [32]): > 64 µg/mL
